Read-outs that look alike come from different tables or passages of the source.
What was measured:
HLA A*0217 = HLA A*0217 (Homo sapiens, UniProt P04439, D140Y/D185E/D98H/E176V/E277Q/G131W/G231S/I119L/I121M/I166T/I218V/L300P/L318F/N151K/N90K/P208A/P217A/Q86G/Q94H/R138H/R169H/T345S/Y123F)
Description: (§1) Twelve cell lines were subjected to chromium release assays in which they were pulsed with the 495 peptide (pp65495-503) nonamer, loaded with chromium-51, and incubated with two different HLA A*0201 restricted CTL which recognize the 495 peptide and HCMV. The specific cytotoxicity was calculated and is shown in tabular form below for the 1 μM and 1 nM concentrations of the 495 peptide.

HLA A*0205 = HLA A*0205 (Homo sapiens, UniProt P04439, D140Y/D185E/D98H/E176V/E277Q/F33Y/G131W/G231S/I119L/I121R/I166T/I218V/L180W/L300P/L318F/N151K/N90K/P208A/P217A/Q67R/Q86G/Q94H/R138H/R169H/T345S)
Description: as §1

HLA A*0207 = HLA A*0207 (Homo sapiens, UniProt P04439, D140Y/D185E/D98H/E176V/E277Q/G131W/G231S/I119V/I121R/I166T/I218V/L300P/L318F/N151K/N90K/P208A/P217A/Q86G/Q94H/R138H/R169H/T345S/Y123C)
Description: as §1

HLA A*0206 = HLA A*0206 (Homo sapiens, UniProt P04439, D140Y/D185E/D98H/E176V/E277Q/F33Y/G131W/G231S/I119V/I121R/I166T/I218V/L300P/L318F/N151K/N90K/P208A/P217A/Q86G/Q94H/R138H/R169H/T345S)
Description: as §1

HLA A*0211 = HLA A*0211 (Homo sapiens, UniProt P04439, D140Y/D185E/E176V/E277Q/G131W/G231S/I119V/I121R/I166T/I218V/L300P/L318F/N151K/N90K/P208A/P217A/Q86G/Q94H/R138H/R169H/T345S/T97I)
Description: as §1

HLA A*0210 = HLA A*0210 (Homo sapiens, UniProt P04439, D140Y/D185E/D98H/E176V/E277Q/F33Y/G231S/I119V/I121R/I166T/I218V/L300P/L318F/N151K/N90K/P208A/P217A/Q86G/Q94H/R138H/R169H/T345S/Y123F)
Description: as §1

495 peptide targets = settings: after 14 weeks; 495 peptide + PADRE + IFA
HLA A*0204 = HLA A*0204 (Homo sapiens, UniProt P04439, D140Y/D185E/D98H/E176V/E277Q/G131W/G231S/I119V/I121M/I166T/I218V/L300P/L318F/N151K/N90K/P208A/P217A/Q86G/Q94H/R138H/R169H/T345S)
Description: as §1

HLA A*0202 = HLA A*0202 (Homo sapiens, UniProt P04439, D140Y/D185E/D98H/E176V/E277Q/G131W/G231S/I119L/I121R/I166T/I218V/L180W/L300P/L318F/N151K/N90K/P208A/P217A/Q67R/Q86G/Q94H/R138H/R169H/T345S)
Description: as §1

HLA A*0209 = HLA A*0209 (Homo sapiens, UniProt P04439, A260E/D140Y/D185E/D98H/E176V/E277Q/G131W/G231S/I119V/I121R/I166T/I218V/L300P/L318F/N151K/N90K/P208A/P217A/Q86G/Q94H/R138H/R169H/T345S)
Description: as §1

Structure (SMILES): CSCC[C@H](NC(=O)[C@@H]1CCCN1C(=O)[C@@H](NC(=O)[C@H](CC(C)C)NC(=O)[C@@H](N)CC(N)=O)C(C)C)C(=O)N[C@H](C(=O)N[C@@H](C)C(=O)N[C@H](C(=O)N[C@H](C(=O)O)C(C)C)[C@@H](C)O)C(C)C [SEQ ID NO:1]
- specific cytotoxicity (HLA A*0217; A*0217, CTL 3-3F4, 1 nM): − (cytotoxicity less than 15%)
- specific cytotoxicity (HLA A*0217; A*0217, CTL 3-3F4, 1 μM): + (cytotoxicity greater than 30%)
- specific cytotoxicity (HLA A*0217; A*0217, CTL VB-57, 1 nM): + (cytotoxicity greater than 30%)
- specific cytotoxicity (HLA A*0217; A*0217, CTL VB-57, 1 μM): + (cytotoxicity greater than 30%)
- specific cytotoxicity (HLA A*0205; A*0205, CTL 3-3F4, 1 nM): − (cytotoxicity less than 15%)
- specific cytotoxicity (HLA A*0205; A*0205, CTL 3-3F4, 1 μM): + (cytotoxicity greater than 30%)
- specific cytotoxicity (HLA A*0205; A*0205, CTL VB-57, 1 nM): + (cytotoxicity greater than 30%)
- specific cytotoxicity (HLA A*0205; A*0205, CTL VB-57, 1 μM): + (cytotoxicity greater than 30%)
- specific cytotoxicity (HLA A*0207; A*0207, CTL 3-3F4, 1 nM): + (cytotoxicity greater than 30%)
- specific cytotoxicity (HLA A*0207; A*0207, CTL 3-3F4, 1 μM): + (cytotoxicity greater than 30%)
- specific cytotoxicity (HLA A*0207; A*0207, CTL VB-57, 1 nM): + (cytotoxicity greater than 30%)
- specific cytotoxicity (HLA A*0207; A*0207, CTL VB-57, 1 μM): + (cytotoxicity greater than 30%)
- specific cytotoxicity (HLA A*0206; A*0206, CTL 3-3F4, 1 nM): + (cytotoxicity greater than 30%)
- specific cytotoxicity (HLA A*0206; A*0206, CTL 3-3F4, 1 μM): + (cytotoxicity greater than 30%)
- specific cytotoxicity (HLA A*0206; A*0206, CTL VB-57, 1 nM): + (cytotoxicity greater than 30%)
- specific cytotoxicity (HLA A*0206; A*0206, CTL VB-57, 1 μM): + (cytotoxicity greater than 30%)
- specific cytotoxicity (HLA A*0211; A*0211, CTL 3-3F4, 1 nM): − (cytotoxicity less than 15%)
- specific cytotoxicity (HLA A*0211; A*0211, CTL 3-3F4, 1 μM): + (cytotoxicity greater than 30%)
- specific cytotoxicity (HLA A*0211; A*0211, CTL VB-57, 1 μM): + (cytotoxicity greater than 30%)
- specific cytotoxicity (HLA A*0210; A*0210, CTL 3-3F4, 1 nM): + (cytotoxicity greater than 30%)
- specific cytotoxicity (HLA A*0210; A*0210, CTL 3-3F4, 1 μM): + (cytotoxicity greater than 30%)
- specific cytotoxicity (HLA A*0210; A*0210, CTL VB-57, 1 nM): + (cytotoxicity greater than 30%)
- specific cytotoxicity (HLA A*0210; A*0210, CTL VB-57, 1 μM): + (cytotoxicity greater than 30%)
- Percent specific cytotoxicity (cytotoxicity of 495 peptide targets—cytotoxicity of p53 targets) (495 peptide targets): 40%
- specific cytotoxicity (HLA A*0204; A*0204, CTL 3-3F4, 1 nM): + (cytotoxicity greater than 30%)
- specific cytotoxicity (HLA A*0204; A*0204, CTL 3-3F4, 1 μM): + (cytotoxicity greater than 30%)
- specific cytotoxicity (HLA A*0204; A*0204, CTL VB-57, 1 nM): + (cytotoxicity greater than 30%)
- specific cytotoxicity (HLA A*0204; A*0204, CTL VB-57, 1 μM): + (cytotoxicity greater than 30%)
- specific cytotoxicity (HLA A*0202; A*0202, CTL 3-3F4, 1 nM): − (cytotoxicity less than 15%)
- specific cytotoxicity (HLA A*0202; A*0202, CTL 3-3F4, 1 μM): + (cytotoxicity greater than 30%)
- specific cytotoxicity (HLA A*0202; A*0202, CTL VB-57, 1 nM): − (cytotoxicity less than 15%)
- specific cytotoxicity (HLA A*0202; A*0202, CTL VB-57, 1 μM): + (cytotoxicity greater than 30%)
- specific cytotoxicity (HLA A*0209; A*0209, CTL 3-3F4, 1 nM): − (cytotoxicity less than 15%)
- specific cytotoxicity (HLA A*0209; A*0209, CTL 3-3F4, 1 μM): + (cytotoxicity greater than 30%)
- specific cytotoxicity (HLA A*0209; A*0209, CTL VB-57, 1 nM): − (cytotoxicity less than 15%)
- specific cytotoxicity (HLA A*0209; A*0209, CTL VB-57, 1 μM): + (cytotoxicity greater than 30%)

Reference: US7160685B2, “Diagnostic reagents for human cytomegalovirus and methods of use” (priority 1996, dated 2007)
